# Experimental data published in ChEMBL document CHEMBL5131375, “Recent Developments in the Use of Kinase Inhibitors for Management of Viral Infections” (J Med Chem, 2022).
# Tests used:
# Influenza A virus [1] = assay: Antiviral actiivty against Influenza A (A/Regensburg/D6/2009 (H1N1)) infected in human A549 cells; assay type: functional, organism-based
# [2] = Cytotoxicity against human A549 cells; assay type: toxicity, cell-based
# Hepatitis C virus [3] = assay: Antiviral activity against HCV GT1b-genotype assessed as inhibition of viral replication; assay type: functional, organism-based, Hepacivirus hominis
# in vitro [4] = conditions: human, Huh-7 cells
# Hepatitis C virus [5] = assay: microbe, parasite or virus in culture
# Ebolavirus [6] = assay: microbe, parasite or virus in culture; assay type: functional, organism-based; conditions: Orthoebolavirus
# Marburgvirus [7] = assay: microbe, parasite or virus in culture; assay type: functional, organism-based; conditions: Orthomarburgvirus
# in vitro [8] = conditions: chlorocebus sabaeus, vero
# Lassa virus [9] = assay: microbe, parasite or virus in culture; conditions: Mammarenavirus lassaense
# Lassa virus [10] = assay: microbe, parasite or virus in culture; conditions: Mammarenavirus lassaense, A549
# Ebolavirus [11] = assay: microbe, parasite or virus in culture; conditions: Orthoebolavirus, Huh-7
# Marburgvirus [12] = assay: microbe, parasite or virus in culture; conditions: Orthomarburgvirus
# Ebolavirus [13] = assay: microbe, parasite or virus in culture; conditions: Orthoebolavirus
# Ebolavirus [14] = assay: microbe, parasite or virus in culture; conditions: Orthoebolavirus; remark: listed apart in the source
# Lassa virus [15] = assay: microbe, parasite or virus in culture; conditions: Mammarenavirus lassaense; remark: listed apart in the source
# [16] = tested on: Vesicular stomatitis virus; assay: microbe, parasite or virus in culture
# [17] = molecular target: Tyrosine-protein kinase JAK2 (Homo sapiens, UniProt O60674)
# Tyrosine-protein kinase JAK2, sequence (O60674 whole entry): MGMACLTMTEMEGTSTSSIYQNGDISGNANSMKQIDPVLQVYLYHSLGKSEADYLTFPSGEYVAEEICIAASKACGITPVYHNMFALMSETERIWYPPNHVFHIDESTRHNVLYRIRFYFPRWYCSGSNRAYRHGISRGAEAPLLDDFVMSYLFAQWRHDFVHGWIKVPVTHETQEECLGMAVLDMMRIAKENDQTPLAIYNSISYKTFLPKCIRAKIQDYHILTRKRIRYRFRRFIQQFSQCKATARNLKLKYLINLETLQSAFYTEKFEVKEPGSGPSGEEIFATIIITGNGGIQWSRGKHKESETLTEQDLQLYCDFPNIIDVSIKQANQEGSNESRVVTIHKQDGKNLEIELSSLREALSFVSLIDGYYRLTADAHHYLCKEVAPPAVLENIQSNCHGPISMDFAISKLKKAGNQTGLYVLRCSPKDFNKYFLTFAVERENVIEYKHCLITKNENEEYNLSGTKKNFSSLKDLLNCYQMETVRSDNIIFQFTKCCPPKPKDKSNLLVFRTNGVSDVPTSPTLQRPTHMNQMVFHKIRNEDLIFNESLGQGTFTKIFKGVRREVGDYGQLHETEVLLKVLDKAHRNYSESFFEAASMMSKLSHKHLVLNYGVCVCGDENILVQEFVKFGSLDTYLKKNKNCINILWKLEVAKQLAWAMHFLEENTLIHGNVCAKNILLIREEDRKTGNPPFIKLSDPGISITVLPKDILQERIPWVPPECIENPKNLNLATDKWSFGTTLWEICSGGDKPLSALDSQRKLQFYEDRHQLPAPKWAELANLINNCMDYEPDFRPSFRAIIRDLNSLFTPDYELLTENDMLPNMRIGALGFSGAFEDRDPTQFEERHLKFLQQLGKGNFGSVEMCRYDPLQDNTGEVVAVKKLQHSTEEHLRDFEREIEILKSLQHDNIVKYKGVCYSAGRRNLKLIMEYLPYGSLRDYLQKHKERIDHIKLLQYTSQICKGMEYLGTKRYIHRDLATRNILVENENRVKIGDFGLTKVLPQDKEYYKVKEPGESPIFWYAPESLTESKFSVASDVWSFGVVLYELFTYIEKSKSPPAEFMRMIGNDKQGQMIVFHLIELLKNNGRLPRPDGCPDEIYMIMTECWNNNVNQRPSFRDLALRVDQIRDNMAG
# SARS-CoV-2 [18] = assay: microbe, parasite or virus in culture; assay type: functional, organism-based; conditions: Severe acute respiratory syndrome coronavirus 2
# SARS-CoV-2 [19] = assay: microbe, parasite or virus in culture; assay type: functional, organism-based; conditions: Severe acute respiratory syndrome coronavirus 2, Huh-7
# in vitro [20] = conditions: chlorocebus sabaeus, vero c1008
# Janus Kinase (JAK) = Janus Kinase (JAK) (Homo sapiens, UniProt P52333+P23458+O60674+P29597); assay type: protein assay
# Influenza A virus [21] = assay: microbe, parasite or virus in culture; assay type: functional, organism-based
# in vitro [22] = conditions: dog, MDCK cells
# SARS-CoV-2 [23] = assay: microbe, parasite or virus in culture; assay type: functional, organism-based, Vero E6; conditions: Severe acute respiratory syndrome coronavirus 2, Vero C1008
# [24] = Volume of distribution at steady state in Beagle dog plasma at 1 mg/kg, iv at […] LC-MS/MS analysis; assay type: ADME, organism-based, Canis lupus familiaris; conditions: time 0.083 hrs, read-out: Vdss
# [25] = Volume of distribution at steady state in CD-1 mouse plasma at 10 mg/kg, iv at […] LC-MS/MS analysis; assay type: ADME, organism-based; conditions: time 0.083 hrs, read-out: Vdss
# [26] = Volume of distribution at steady state in cynomolgus monkey plasma at 3 mg/kg, iv at […] LC-MS/MS analysis; assay type: ADME, organism-based, Macaca fascicularis; conditions: time 0.083 hrs, read-out: Vdss
# [27] = Volume of distribution at steady state in Han-Wistar rat plasma at 5 mg/kg, iv at […] LC-MS/MS analysis; assay type: ADME, organism-based; conditions: time 0.083 hrs, read-out: Vdss
# Vero C1008 = assay: Cytotoxicity against African green monkey Vero E6 cells at 250 nM; assay type: toxicity, cell-based; conditions: chlorocebus sabaeus, vero c1008, 0.25 µM
# Influenza A virus [28] = assay: microbe, parasite or virus in culture; assay type: functional, organism-based; conditions: H1N1pdm09
# Influenza A virus [29] = assay: microbe, parasite or virus in culture; assay type: functional, organism-based; conditions: H3N2
# Lyssavirus rabies = assay: microbe, parasite or virus in culture; assay type: functional, organism-based
# [30] = Cytotoxicity against golden hamster BSR cells; assay type: toxicity, cell-based, Mesocricetus auratus
# Influenza A virus [31] = assay: Antiviral activity against influenza A/Regensburg/D6/2009 virus; assay type: functional, organism-based
# [32] = molecular target: Receptor tyrosine-protein kinase erbB-2 (Homo sapiens, UniProt P04626); assay: Inhibition of HER2/ErbB-2 (unknown origin)
# Receptor tyrosine-protein kinase erbB-2, sequence (P04626 whole entry): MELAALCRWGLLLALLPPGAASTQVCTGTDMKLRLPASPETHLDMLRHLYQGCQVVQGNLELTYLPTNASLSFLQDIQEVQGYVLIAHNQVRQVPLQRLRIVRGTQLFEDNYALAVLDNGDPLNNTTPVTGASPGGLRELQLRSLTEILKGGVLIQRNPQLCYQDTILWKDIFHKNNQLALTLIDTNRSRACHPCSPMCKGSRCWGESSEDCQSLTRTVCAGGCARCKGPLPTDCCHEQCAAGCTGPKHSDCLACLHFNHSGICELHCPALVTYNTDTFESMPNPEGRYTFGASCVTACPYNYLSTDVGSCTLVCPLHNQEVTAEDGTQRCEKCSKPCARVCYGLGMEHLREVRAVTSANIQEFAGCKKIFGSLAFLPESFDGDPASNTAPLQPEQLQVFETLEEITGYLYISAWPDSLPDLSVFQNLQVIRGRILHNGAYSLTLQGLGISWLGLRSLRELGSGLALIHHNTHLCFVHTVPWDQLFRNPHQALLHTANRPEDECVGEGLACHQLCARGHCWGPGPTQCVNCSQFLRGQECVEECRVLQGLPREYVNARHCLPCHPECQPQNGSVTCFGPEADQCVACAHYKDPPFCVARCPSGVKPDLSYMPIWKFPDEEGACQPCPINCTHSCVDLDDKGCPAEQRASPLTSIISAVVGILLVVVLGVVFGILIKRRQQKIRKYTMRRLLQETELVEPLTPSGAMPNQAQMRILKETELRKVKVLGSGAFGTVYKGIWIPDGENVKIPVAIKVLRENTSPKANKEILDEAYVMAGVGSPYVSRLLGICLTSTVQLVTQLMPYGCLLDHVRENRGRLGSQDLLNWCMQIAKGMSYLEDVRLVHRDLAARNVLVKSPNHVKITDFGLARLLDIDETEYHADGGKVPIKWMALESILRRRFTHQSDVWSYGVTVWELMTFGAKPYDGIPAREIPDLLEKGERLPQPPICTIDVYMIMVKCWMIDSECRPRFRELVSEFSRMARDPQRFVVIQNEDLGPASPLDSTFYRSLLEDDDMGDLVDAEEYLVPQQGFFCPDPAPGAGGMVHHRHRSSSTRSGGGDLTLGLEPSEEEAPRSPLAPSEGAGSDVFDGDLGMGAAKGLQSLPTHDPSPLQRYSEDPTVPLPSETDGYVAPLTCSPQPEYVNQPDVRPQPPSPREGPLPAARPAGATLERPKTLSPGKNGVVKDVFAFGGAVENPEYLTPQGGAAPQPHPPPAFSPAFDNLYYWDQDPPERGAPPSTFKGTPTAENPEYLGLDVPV
# Influenza A virus [33] = assay: Antiviral activity against influenza A virus infected in human A549 cells assessed as inhibition of viral replication at 10 uM relative to control; assay type: functional; parameters: scale not given: the % may be the effect or the level left
# [34] = molecular target: AP2-associated protein kinase 1 (Homo sapiens, UniProt Q2M2I8)
# AP2-associated protein kinase 1, sequence (Q2M2I8 whole entry): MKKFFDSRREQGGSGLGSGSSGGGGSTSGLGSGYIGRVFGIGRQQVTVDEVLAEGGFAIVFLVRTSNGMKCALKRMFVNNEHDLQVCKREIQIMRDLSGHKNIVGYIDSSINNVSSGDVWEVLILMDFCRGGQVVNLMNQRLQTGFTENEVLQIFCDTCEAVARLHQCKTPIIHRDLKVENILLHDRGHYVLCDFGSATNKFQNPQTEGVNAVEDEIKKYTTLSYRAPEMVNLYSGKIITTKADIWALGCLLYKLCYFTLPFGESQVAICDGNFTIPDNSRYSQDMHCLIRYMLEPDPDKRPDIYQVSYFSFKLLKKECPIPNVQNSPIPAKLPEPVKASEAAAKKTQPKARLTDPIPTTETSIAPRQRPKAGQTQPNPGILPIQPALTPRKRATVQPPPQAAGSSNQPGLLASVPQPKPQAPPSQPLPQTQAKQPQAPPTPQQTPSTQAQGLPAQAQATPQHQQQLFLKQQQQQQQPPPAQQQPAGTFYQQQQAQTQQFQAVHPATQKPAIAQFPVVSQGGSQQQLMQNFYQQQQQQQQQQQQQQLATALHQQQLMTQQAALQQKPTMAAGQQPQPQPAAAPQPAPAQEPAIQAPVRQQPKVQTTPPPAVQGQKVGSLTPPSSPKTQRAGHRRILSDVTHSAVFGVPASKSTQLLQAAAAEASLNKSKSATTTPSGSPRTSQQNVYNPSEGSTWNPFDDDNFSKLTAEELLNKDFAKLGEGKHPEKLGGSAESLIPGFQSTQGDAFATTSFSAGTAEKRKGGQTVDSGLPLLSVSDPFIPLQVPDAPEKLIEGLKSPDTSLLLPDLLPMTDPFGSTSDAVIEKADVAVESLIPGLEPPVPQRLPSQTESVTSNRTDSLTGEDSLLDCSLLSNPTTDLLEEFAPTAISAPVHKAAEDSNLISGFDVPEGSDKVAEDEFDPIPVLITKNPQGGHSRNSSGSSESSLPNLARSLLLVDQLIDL
smiles,measurement,setting,value
O=C(NOCC1CC1)c1ccc(F)c(F)c1Nc1ccc(I)cc1Cl [CI-1040],EC50,Influenza A virus [1],26 nM
same,CC50,[2],312000 nM
CCc1cnn2c(NCc3ccc[n+]([O-])c3)cc(N3CCCC[C@H]3CCO)nc12 [DINACICLIB],CC50,[2],> 100000 nM
CC(C)S(=O)(=O)n1c(N)nc2ccc(/C(=N/O)c3ccccc3)cc21 [ENVIROXIME],EC50,Hepatitis C virus [3],100 nM
same,CC50,in vitro [4],25000 nM
same,EC50,Hepatitis C virus [5],200 nM
CN1CCC(Nc2ncc3ncnc(Nc4ccc(F)c(Cl)c4)c3n2)CC1 [FALNIDAMOL],EC50,Ebolavirus [6],1100 nM
same,EC50,Marburgvirus [7],1800 nM
same,CC50,in vitro [8],29100 nM
same,EC50,Lassa virus [9],3200 nM
same,EC50,Lassa virus [10],3200 nM
same,EC50,Ebolavirus [11],1100 nM
same,EC50,Marburgvirus [12],1800 nM
same,EC50,Ebolavirus [13],1200 nM
same,EC50,Ebolavirus [14],1600 nM
same,EC50,Lassa virus [15],7500 nM
same,EC50,[16],30900 nM
Cc1cc(Nc2cc(CN3CCOCC3)c3nc(C)c(Cc4ccc(Cl)cc4F)n3n2)n[nH]1 [GANDOTINIB],IC50,[17],3 nM
CCc1nc(C(N)=O)c(Nc2ccc(N3CCC(N4CCN(C)CC4)CC3)c(OC)c2)nc1NC1CCOCC1 [GILTERITINIB],EC50,SARS-CoV-2 [18],225 nM
same,IC50,SARS-CoV-2 [19],225 nM
same,CC50,in vitro [20],> 500 nM
N#CCC1CCN(c2nc(Nc3ccc(N4CCC(O)CC4)cc3)c3c(=O)[nH]ncc3n2)CC1 [GUSACITINIB],IC50,Janus Kinase (JAK),5 nM
CCS(=O)(=O)Nc1ccc2c(c1)/C(=C(/Nc1ccc(CN3CCCCC3)cc1)c1ccccc1)C(=O)N2 [HESPERADIN],EC50,Influenza A virus [21],280 nM
same,CC50,in vitro [22],21300 nM
Cc1cc(Nc2cc3ncccc3c(N[C@@H]3C[C@H]4CC[C@@H](C3)N4CCC#N)n2)n[nH]1 [IZENCITINIB],IC50,SARS-CoV-2 [19],20 nM
same,EC50,SARS-CoV-2 [23],20 nM
O=C(NOC[C@H](O)CO)c1ccc(F)c(F)c1Nc1ccc(I)cc1F [MIRDAMETINIB],CC50,[2],> 100000 nM
Cc1cn(-c2cc(NC(=O)c3ccc(C)c(Nc4nccc(-c5cccnc5)n4)c3)cc(C(F)(F)F)c2)cn1 [NILOTINIB],EC50,SARS-CoV-2 [18],80 nM
same,Vd at […],[24],0.55 L/kg
same,Vd at […],[25],0.55 L/kg
same,Vd at […],[26],0.55 L/kg
same,Vd at […],[27],0.55 L/kg
same,Activity,Vero C1008,Non-Toxic
C[C@H](Nc1cc(-c2cnn(C)c2)cc(Nc2cnccn2)n1)c1ccc(F)cc1 [NS-018],IC50,[17],0.27 nM
COc1cc(F)c(F)c(Nc2ccc(I)cc2F)c1NS(=O)(=O)C1(C[C@H](O)CO)CC1 [REFAMETINIB],CC50,[2],> 100000 nM
same,IC50,Influenza A virus [28],60 nM
CNC(=O)c1cc(Oc2ccc(NC(=O)Nc3ccc(Cl)c(C(F)(F)F)c3)c(F)c2)ccn1 [REGORAFENIB],EC50,Influenza A virus [29],890 nM
same,CC50,[2],14200 nM
CC(=O)c1c(O)c(C)c(O)c(Cc2c(O)c3c(c(C(=O)/C=C/c4ccccc4)c2O)OC(C)(C)C=C3)c1O [ROTTLERIN],EC50,Lyssavirus rabies,1000 nM
same,CC50,[30],100000 nM
Cn1cnc2c(F)c(Nc3ccc(Br)cc3Cl)c(C(=O)NOCCO)cc21 [SELUMETINIB],EC50,Influenza A virus [31],750 nM
same,CC50,[2],> 100000 nM
same,EC50,Influenza A virus [28],750 nM
CC(C)(C)c1cc(/C=C(\C#N)C(N)=S)cc(C(C)(C)C)c1O [TYRPHOSTIN AG 879],IC50,[32],1000 nM
same,Activity,Influenza A virus [33],50%
same,IC50,Influenza A virus [21],10000 nM
same,CC50,[2],> 81000 nM
CC[C@@H]1CN(C(=O)NCC(F)(F)F)C[C@@H]1c1cnc2cnc3[nH]ccc3n12 [UPADACITINIB],Kd,[34],9900 nM
CNC(=O)c1cccc(-c2ccc3c(N4CCOC[C@@H]4C)nc(N4CCOC[C@@H]4C)nc3n2)c1 [VISTUSERTIB],EC50,SARS-CoV-2 [18],15.9 nM
same,Activity,Vero C1008,Non-Toxic
